US20240148779A1, “METHODS FOR THE TREATMENT OF PROTEINOPATHIES” (RENATUS INC., priority 2022, published 2024)

How the values were obtained:
[1] = tested on: SH-SY5Y cells; experiment: Cytotoxicity induced by cyclodextrins in SH-SY5Y cells (CCK-8)
Method: HPBCD oligomer was prepared by using hydroxypropyl-beta-cyclodextrin (HPBCD) monomers with a molar substitution value between 0.4 and 0.8. […] SH-SY5Y cells were maintained using DMEM containing 10% fetal bovine serum, 1% Penicillin-Streptomycin, and retinoic acid (50 μM) to induce differentiation into neuron-like cells. Media was changed total three times (1, 3, and 5 days post-seeding) and the cells were seeded for experiments on the next day. The cells were seeded in a 96-well plate at a density of 5×10^4 cells per well. On the next day, the cells were treated with each cyclodextrin at 2.5 mg/mL, 5 mg/mL, 10 mg/mL, and 20 mg/mL for 24 hours. Cellular viability was measured using Cell Counting Kit-8 (CCK-8) and measuring the absorbance at 450 nm.

[2] = tested on: TNF-α; experiment: Aβ42 aggregate-induced inflammation, secreted TNF-α by ELISA in SH-SY5Y cells; assay type: cell-based; conditions: Aβ42 25 μM, 24 hours, cyclodextrins 2.5 mg/mL, FIG. 12
Method: The pre-aggregated Aβ42 was treated at a concentration of 25 μM for 24 hours with or without cyclodextrins and enzyme-linked immunosorbent assay (ELISA) was performed to measure inflammatory cytokines secreted by the cells. […] GCD oligomer was prepared by using gamma-cyclodextrin (GCD) monomers.

[3] = tested on: ARPE-19 cells; experiment: Cytotoxicity induced by pre-aggregated Aβ42 in ARPE-19 cells (CCK-8); assay type: cell-based; conditions: ARPE-19, Aβ42 25 μM, 48 hours, cyclodextrins 1, 2.5 and 5 mg/mL, FIG. 7
Method: (§1) Amyloid beta 1-42 (Aβ42) was dissolved in distilled water at a concentration of 1 mM, vortexed for 30 seconds, and then incubated at 37° C. for 7 days to induce pre-aggregation. […] ARPE-19 cells were maintained using DMEM/F12 media containing 10% fetal bovine serum, 1% Penicillin-Streptomycin, 1% HEPES, and 2.5 mM L-Glutamine. […] On the next day, the cells were treated with pre-aggregated Aβ42 at a concentration of 25 μM for 48 hours in the presence of cyclodextrins (1, 2.5, and 5 mg/mL).

[4] = tested on: SH-SY5Y cells; experiment: Plasma membrane cholesterol extraction in SH-SY5Y cells; assay type: cell-based; conditions: cyclodextrin 20 mg/mL, 37° C., 1 hour, FIG. 11
Method: Since cyclodextrin-mediated cytotoxicity is known to be caused by excessive plasma membrane cholesterol extraction and consequential membrane disruption, we investigated cholesterol extraction from the cells. […] The next day, the cells treated with cyclodextrins at a concentration of 20 mg/mL at 37° C. for 1 hour. The supernatant was collected, centrifuged at a rate of 14,000 g for 30 minutes to remove cell debris and microvesicles, and then the cholesterol concentration in the supernatant was quantified using a Cholesterol Quantification Kit (Sigma Aldrich).

[5] = tested on: SH-SY5Y cells; experiment: Cytotoxicity induced by pre-aggregated Aβ42 in SH-SY5Y cells (CCK-8); assay type: cell-based; conditions: Aβ42 25 μM, 48 hours, cyclodextrins 1, 2.5 and 5 mg/mL, FIG. 7
Method: as §1
Then, we investigated the effects of molecular weights of gamma-cyclodextrin oligomers on the cytotoxicity induced by protein aggregates. […] The SH-SY5Y cells were treated with pre-aggregated Aβ42 for 48 hours in the presence of cyclodextrins (5 mg/mL).

[6] = tested on: SH-SY5Y cells; experiment: Cytotoxicity induced by pre-aggregated alpha-synuclein in SH-SY5Y cells; assay type: cell-based; conditions: αSyn 1 μM, 24 hours, cyclodextrins 1, 2.5 and 5 mg/mL, FIG. 8
Method: as §1
Using the SH-SY5Y cells, the cytotoxicity of aggregated alpha-synuclein (αSyn) was evaluated. The cells were treated with pre-aggregated αSyn (1 μM) for 24 hours in the presence of cyclodextrins (1, 2.5, and 5 mg/mL).

Compound | cellular viability ([1]; human, 24 h, 20 mg/mL) [%] | level of secreted TNF-α [2] | cellular viability ([1]; SH-SY5Y, cyclodextrin 20 mg/mL, 24 hours, FIG. 10) [%] | effect on cytotoxicity induced by Aβ42 aggregate [3] | level of plasma membrane cholesterol extraction [4] | effect on cytotoxicity induced by Aβ42 aggregate [5] | effect on cytotoxicity induced by αSyn aggregate [6]
CC(O)COC[C@H]1O[C@@H]2O[C@H]3[C@H](O)[C@@H](O)[C@@H](O[C@H]4[C@H](O)[C@@H](O)[C@@H](O[C@H]5[C@H](O)[C@@H](O)[C@@H](O[C@H]6[C@H](O)[C@@H](O)[C@@H](O[C@H]7[C@H](O)[C@@H](O)[C@@H](O[C@H]8[C@H](O)[C@@H](O)[C@@H](O[C@H]1[C@H](O)[C@H]2O)O[C@@H]8COCC(C)O)O[C@@H]7COCC(C)O)O[C@@H]6COCC(C)O)O[C@@H]5COCC(C)O)O[C@@H]4COCC(C)O)O[C@@H]3COCC(C)O (stereo partly drawn) [HPBCD, hydroxypropyl-beta-cyclodextrin] | 43.25 | did not show significant effect |  |  |  |  | 
hydroxypropyl-gamma-cyclodextrin [HPGCD] |  | did not show significant effect | 81.38 | did not show such effect | no significance compared to PBS | did not show such effect | less effective
